Data: publication PMC6235531, “Analyzing Protein Architectures and Protein-Ligand Complexes by Integrative Structural Mass Spectrometry” (Journal of Visualized Experiments : JoVE, 2018)
Structures can show the parent of a compound that is named as a salt.

How the values were obtained:
HerA-NurA = target: T1, HerA-NurA (Saccharolobus solfataricus, UniProt Q97WG8); experiment: native nESI mass spectrometry titration; type: binding; conditions: 5 uM protein, 0-1 mM ligand, 2 mM MgCl2, 25 °C 1 h, then 200 mM ammonium acetate pH 7; also tested with 25 bp dsDNA
T1 construct: purified HerA hexamer with NurA dimer; with DNA double-strand break repair nuclease NurA
T1 sequence (Q97WH1 whole entry, one chain of several, further chain): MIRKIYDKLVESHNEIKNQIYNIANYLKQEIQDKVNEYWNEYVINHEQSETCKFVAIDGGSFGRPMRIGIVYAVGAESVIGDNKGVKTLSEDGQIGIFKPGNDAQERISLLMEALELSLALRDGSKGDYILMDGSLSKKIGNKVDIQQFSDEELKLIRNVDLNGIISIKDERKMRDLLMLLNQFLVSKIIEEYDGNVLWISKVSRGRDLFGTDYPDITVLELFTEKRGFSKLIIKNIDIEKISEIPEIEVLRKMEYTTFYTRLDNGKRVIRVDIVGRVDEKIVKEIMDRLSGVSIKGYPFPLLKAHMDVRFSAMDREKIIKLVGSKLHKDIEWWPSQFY

HerA = target: T2, HerA (Saccharolobus solfataricus, UniProt Q97WG8); experiment: native nESI mass spectrometry titration; type: binding; conditions: increasing ATP-γ-S; no NurA; 200 mM ammonium acetate
T2 construct: purified HerA without NurA, hexamer and heptamer
T2 sequence (Q97WG8 1-500): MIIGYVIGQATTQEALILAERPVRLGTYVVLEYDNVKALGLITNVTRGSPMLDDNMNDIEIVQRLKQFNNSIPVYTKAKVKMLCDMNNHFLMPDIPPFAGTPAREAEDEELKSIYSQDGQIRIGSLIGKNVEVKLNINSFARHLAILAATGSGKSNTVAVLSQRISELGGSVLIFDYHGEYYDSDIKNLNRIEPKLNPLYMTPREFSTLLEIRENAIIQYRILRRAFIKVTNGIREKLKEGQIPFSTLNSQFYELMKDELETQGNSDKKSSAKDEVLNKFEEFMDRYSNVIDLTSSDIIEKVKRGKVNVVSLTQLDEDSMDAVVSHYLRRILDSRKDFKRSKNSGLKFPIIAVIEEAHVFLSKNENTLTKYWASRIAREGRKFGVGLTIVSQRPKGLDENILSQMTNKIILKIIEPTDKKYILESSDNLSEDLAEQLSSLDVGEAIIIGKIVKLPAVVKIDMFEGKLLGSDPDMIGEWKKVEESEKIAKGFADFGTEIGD

Compound	native nESI mass spectrometry titration (HerA-NurA)	native nESI mass spectrometry titration (HerA)
Nc1ncnc2c1ncn2[C@@H]1O[C@H](COP(=O)(O)OP(=O)(O)OP(O)(O)=S)[C@@H](O)[C@H]1O [ATP-γ-S, adenosine 5′-O-(3-thiotriphosphate), tetralithium salt]	ATP-γ-S and ADP titrations experiments determined the pairwise nucleotide binding to HerA-NurA alone	Number of ATP-γ-S molecules bound is shown on the spectra
Nc1ncnc2c1ncn2[C@@H]1O[C@H](COP(=O)(O)OP(=O)(O)O)[C@@H](O)[C@H]1O [ADP]	ATP-γ-S and ADP titrations experiments determined the pairwise nucleotide binding to HerA-NurA alone	–
